In general, IC50 refers to the midpoint of a concentration-inhibition curve. A low value points to greater potency. As a reminder, the MIC is the smallest concentration in the dilution series that meets the test's criterion for growth inhibition.

Bounds are passed on as bounds.

Consider nine molecules from US20020049205A1, “Pyrazole antimicrobial agents” (priority 2000, published 2002).

T1 sequence (P0A8V2 whole entry): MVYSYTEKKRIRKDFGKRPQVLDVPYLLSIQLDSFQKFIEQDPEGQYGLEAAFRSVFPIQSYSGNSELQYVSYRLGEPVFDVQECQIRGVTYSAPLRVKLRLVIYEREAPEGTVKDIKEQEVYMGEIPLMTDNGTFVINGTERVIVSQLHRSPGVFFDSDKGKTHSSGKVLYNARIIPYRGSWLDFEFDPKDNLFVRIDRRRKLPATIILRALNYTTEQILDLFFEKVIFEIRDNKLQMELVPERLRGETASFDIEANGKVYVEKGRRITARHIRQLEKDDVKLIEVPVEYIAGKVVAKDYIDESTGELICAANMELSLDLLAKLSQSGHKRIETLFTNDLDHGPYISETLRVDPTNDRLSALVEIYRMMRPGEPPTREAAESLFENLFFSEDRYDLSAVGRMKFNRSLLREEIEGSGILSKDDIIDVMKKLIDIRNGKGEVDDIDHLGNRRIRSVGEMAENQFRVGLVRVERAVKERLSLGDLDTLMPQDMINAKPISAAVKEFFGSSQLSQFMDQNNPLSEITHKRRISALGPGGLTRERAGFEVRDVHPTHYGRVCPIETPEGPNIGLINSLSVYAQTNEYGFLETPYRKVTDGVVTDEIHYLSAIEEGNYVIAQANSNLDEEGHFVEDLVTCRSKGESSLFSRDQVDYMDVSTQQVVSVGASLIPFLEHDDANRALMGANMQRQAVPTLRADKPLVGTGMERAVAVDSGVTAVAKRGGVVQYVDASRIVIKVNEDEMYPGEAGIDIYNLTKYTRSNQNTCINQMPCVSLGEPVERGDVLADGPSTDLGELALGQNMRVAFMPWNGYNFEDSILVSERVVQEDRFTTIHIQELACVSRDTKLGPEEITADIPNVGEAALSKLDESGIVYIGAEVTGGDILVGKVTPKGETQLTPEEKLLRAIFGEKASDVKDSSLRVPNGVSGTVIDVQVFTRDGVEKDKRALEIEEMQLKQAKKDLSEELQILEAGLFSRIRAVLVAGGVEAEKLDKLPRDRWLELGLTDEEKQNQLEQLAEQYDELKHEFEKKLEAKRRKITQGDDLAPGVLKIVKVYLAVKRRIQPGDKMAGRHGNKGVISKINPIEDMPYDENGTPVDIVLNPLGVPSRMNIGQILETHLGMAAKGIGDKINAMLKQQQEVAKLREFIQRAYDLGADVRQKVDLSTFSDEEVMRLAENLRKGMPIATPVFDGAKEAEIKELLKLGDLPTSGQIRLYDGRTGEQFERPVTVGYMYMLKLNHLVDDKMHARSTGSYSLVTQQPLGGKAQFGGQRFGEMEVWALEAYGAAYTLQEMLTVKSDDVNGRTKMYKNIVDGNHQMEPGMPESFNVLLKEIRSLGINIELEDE
T1 sequence (P0A8T7 whole entry): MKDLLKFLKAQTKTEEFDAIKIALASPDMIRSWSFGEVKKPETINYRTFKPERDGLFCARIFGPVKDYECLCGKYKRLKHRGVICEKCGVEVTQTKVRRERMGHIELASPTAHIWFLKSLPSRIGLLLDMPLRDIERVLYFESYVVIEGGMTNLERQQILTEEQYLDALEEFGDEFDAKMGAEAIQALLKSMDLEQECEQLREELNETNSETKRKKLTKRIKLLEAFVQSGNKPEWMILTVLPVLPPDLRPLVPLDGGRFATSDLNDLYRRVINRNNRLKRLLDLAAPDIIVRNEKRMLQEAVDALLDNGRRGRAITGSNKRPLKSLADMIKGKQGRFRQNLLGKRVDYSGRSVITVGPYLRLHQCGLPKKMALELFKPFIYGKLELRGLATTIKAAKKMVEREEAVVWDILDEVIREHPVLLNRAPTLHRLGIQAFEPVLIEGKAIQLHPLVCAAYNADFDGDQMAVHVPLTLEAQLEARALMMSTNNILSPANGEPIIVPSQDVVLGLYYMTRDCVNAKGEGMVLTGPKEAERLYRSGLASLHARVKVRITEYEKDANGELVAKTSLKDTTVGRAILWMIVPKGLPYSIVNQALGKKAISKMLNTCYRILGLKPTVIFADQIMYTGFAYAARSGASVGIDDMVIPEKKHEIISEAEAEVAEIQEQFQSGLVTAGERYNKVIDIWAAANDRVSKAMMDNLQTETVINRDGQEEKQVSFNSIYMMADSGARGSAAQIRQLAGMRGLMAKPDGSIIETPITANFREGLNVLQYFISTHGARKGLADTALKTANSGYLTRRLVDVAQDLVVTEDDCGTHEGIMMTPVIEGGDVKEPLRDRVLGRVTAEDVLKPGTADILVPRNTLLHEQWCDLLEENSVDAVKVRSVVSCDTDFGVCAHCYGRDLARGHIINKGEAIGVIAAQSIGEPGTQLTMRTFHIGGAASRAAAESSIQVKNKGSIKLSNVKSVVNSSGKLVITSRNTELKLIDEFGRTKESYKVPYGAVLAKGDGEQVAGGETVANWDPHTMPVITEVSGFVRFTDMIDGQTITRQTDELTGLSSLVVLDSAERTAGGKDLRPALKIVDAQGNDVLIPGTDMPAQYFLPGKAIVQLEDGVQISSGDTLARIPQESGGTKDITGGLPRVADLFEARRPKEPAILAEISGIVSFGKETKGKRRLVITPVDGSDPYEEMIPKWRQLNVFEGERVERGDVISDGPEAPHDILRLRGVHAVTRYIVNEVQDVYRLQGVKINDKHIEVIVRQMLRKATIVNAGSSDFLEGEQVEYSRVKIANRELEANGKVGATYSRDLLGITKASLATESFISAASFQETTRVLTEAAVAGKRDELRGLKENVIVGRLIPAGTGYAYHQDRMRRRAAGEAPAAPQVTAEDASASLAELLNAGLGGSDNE
T1 sequence (P0A7Z4 whole entry): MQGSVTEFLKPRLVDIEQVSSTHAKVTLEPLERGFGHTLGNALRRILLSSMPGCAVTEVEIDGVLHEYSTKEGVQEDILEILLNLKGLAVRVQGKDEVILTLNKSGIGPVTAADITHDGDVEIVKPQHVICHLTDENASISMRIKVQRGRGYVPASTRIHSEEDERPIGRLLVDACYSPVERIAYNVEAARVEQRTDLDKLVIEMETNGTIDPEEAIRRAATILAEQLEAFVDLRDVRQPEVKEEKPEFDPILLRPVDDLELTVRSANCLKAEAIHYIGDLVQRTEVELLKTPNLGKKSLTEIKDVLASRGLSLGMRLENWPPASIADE
T1 sequence (P0A800 whole entry): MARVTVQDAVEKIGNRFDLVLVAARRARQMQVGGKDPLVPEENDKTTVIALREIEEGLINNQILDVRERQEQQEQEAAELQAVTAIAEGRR

One assay concerns the target T1, Sigma^70 saturated E. coli RNA Polymerase (Escherichia coli, UniProt P0A7Z4+P0A800+P0A8T7+P0A8V2).
T1 construct: purchased Epicenter
Nature of the assay: IC50 assay, inhibition of RNA polymerase. The settings on record: Table 1, compounds of Formula 1. The class given is biochemical. How it is done: One common assay involves evaluation of the compounds as RNA polymerase inhibitors. In this assay, buffer (250 mM KCl, 5% glycerol, 10 mM MgCl2, 0.1 mg/ml BSA) is combined with 6 mM β-M.E., PT5 DNA template, and 1.3 μg/rxn Sigma^70 saturated E. coli RNA Polymerase (Epicenter). The compound is then added in a manner not to exceed 5% DMSO. Nucleotide triphosphates are then added at the following concentration: 250 μM ATP, CTP and UTP with 100 μM cold CTP and 50 μM α-^32P CTP. The mixture is incubated for 10 min at about 37° C. A [2×] loading buffer is added and the mixture is then run on a 6% urea denaturing PAGE until bromophenol blue reaches the edge of plate. The gel is soaked (about 20 minutes in 10% MeOH and 10% acetic acid, to remove urea), then dried (about 55 minutes at about 85° C. (BioRad Gel Drier)) and exposed to a Phospho Imaging Plate for 1 hour. The plate is then read on a Fujix Bas1000 Imaging System and quantified using MacBas v2.0 software. An IC50 (in μM) can be calculated as the concentration of a drug which reduces the enzyme activity to 50% of the control.
In this assay, buffer (250 mM KCl, 5% Glycerol, 10 mM MgCl2, 0.1 mg/ml bovine serum albumin (BSA)) is combined with 6 mM β-mercaptoethanol, PT5 DNA template, and 1.3 μg/rxn Sigma^70 saturated E. coli RNA Polymerase (obtained from Epicenter). The compound is then added in a manner not to exceed 5% DMSO. Nucleotide triphosphates are then added at the following concentration: 250 μM ATP, CTP and UTP with 100 μM cold CTP and 50 μM α-32P CTP. The mixture is incubated for 10 min at about 37° C. A [2×] loading buffer is added and the mixture is then run on a 6% urea denaturing PAGE until bromophenol blue reaches the edge of plate. The gel is soaked (about 20 minutes in 10% MeOH and 10% acetic acid, to remove urea), then dried (about 55 minutes at about 85° C. (BioRad Gel Drier)) and exposed to a Phospho Imaging Plate for 1 hour. The plate is then read on a Fujix Bas1000 Imaging System and quantified using MacBas v2.0 software. An IC50 (in μM) can be calculated as the concentration of a compound of the invention that reduces the enzyme activity to 50% of the control. For the sake of clarity, the above-described assay is used to determine the IC50 values referenced in the claims. However, the skilled artisan will recognize that other methods can be used to determine an IC50 value.
Take `NCCCNc1cc(-c2c[nH]nc2-c2ccc(F)cc2)cc(C(F)(F)F)c1` [Example 30]: the concentration for half-maximal inhibition (IC50) is > 500 µM.
The same measure, in the same setting: the same measure for `O=C(NCCCNc1cc(-c2c[nH]nc2-c2ccc(F)cc2)cc(C(F)(F)F)c1)Nc1ccc(Cl)c(C(F)(F)F)c1` [Example 31]: < 500 µM; for `O=[N+]([O-])c1cccc(-c2c[nH]nc2-c2ccc(F)c(C(F)(F)F)c2)c1` [Example 32]: < 500 µM.
Still for that read-out and setting: as for `O=[N+]([O-])c1cccc(-c2c[nH]nc2-c2ccc(N3CCCCC3)c(C(F)(F)F)c2)c1` [Example 33], the figure is < 500 µM; as for `Nc1cccc(-c2c[nH]nc2-c2ccc(F)c(C(F)(F)F)c2)c1` [Example 34], < 500 µM.
Still for that read-out and setting: as for `O=C(COc1ccccc1)Nc1cccc(-c2c[nH]nc2-c2ccc(F)c(C(F)(F)F)c2)c1` [Example 35], the figure is < 500 µM; as for `CS(=O)(=O)Nc1cccc(-c2c[nH]nc2-c2ccc(F)c(C(F)(F)F)c2)c1` [Example 36], < 500 µM.

Still in this assay, the particulars now being: Table 3, heteroaryl compounds.
As for `Cc1c(-c2c[nH]nc2-c2ccc(F)cc2)sc2ccccc12` [Example 37], the IC50 was < 500 µM.
Consider `Fc1cccc(-c2c[nH]nc2-c2ccsc2)c1` [Example 38], for which the half-maximal inhibitory concentration (IC50) was < 500 µM.

The test system of a further assay is E.c(tolC). Nature of the assay: Minimum Inhibitory Concentration assay, E.c(tolC). Type of assay: cell-based. The settings on record: 16 h, read-out: MIC (μM) E.c(tolC). How it is done:
(§1) For Minimum Inhibitory Concentration (MIC) determinations for selected bacteria, log phase growing bacteria are re-suspended at 1×10^5 bacteria per mL in LB medium. The compound is added and two-fold dilutions are made. The final volume in the 96-well plate is about 100 μL. The plate is incubated at 37° C. in the dark with shaking. After 16 hours of incubation, growth is monitored by reading A600 or by visual inspection. MIC is defined as the minimum concentration of drug resulting in inhibition of visible growth of bacterial under the conditions described (above) in National Committee for Clinical Laboratory Standards 1993. Methods for dilution antimicrobial susceptibility tests for bacteria that grow aerobically. Approved standard M7-A3; National Committee for Clinical Laboratory Standards: Villanova, Pa.
as §1, with “MIC” for “Minimum Inhibitory Concentration (MIC)”
Turning to `NCCCNc1cc(-c2c[nH]nc2-c2ccc(F)cc2)cc(C(F)(F)F)c1` [Example 30], the MIC is < 500 µM.
As for `O=C(NCCCNc1cc(-c2c[nH]nc2-c2ccc(F)cc2)cc(C(F)(F)F)c1)Nc1ccc(Cl)c(C(F)(F)F)c1` [Example 31], the MIC is > 500 µM.
Same read-out and setting: as for `O=[N+]([O-])c1cccc(-c2c[nH]nc2-c2ccc(F)c(C(F)(F)F)c2)c1` [Example 32], the figure is > 500 µM; as for `O=[N+]([O-])c1cccc(-c2c[nH]nc2-c2ccc(N3CCCCC3)c(C(F)(F)F)c2)c1` [Example 33], > 500 µM; as for `Nc1cccc(-c2c[nH]nc2-c2ccc(F)c(C(F)(F)F)c2)c1` [Example 34], < 500 µM.
Same read-out and setting: as for `O=C(COc1ccccc1)Nc1cccc(-c2c[nH]nc2-c2ccc(F)c(C(F)(F)F)c2)c1` [Example 35], the figure is > 500 µM; as for `CS(=O)(=O)Nc1cccc(-c2c[nH]nc2-c2ccc(F)c(C(F)(F)F)c2)c1` [Example 36], < 500 µM.
For the molecule `Cc1c(-c2c[nH]nc2-c2ccc(F)cc2)sc2ccccc12` [Example 37], the MIC is < 500 µM.
The same measure, in the same setting: as for `Fc1cccc(-c2c[nH]nc2-c2ccsc2)c1` [Example 38], the figure is < 500 µM.

A further assay deals with B. su. Description: Minimum Inhibitory Concentration assay, B. su. The class given is cell-based. The settings on record: LB medium, 16 hours, 37° C.; Table 1. How it is done:
as §1
as §1, with “MIC” for “Minimum Inhibitory Concentration (MIC)”
With `NCCCNc1cc(-c2c[nH]nc2-c2ccc(F)cc2)cc(C(F)(F)F)c1` [Example 30], the MIC is < 500 µM.
Still for that read-out and setting: the same measure for `O=C(NCCCNc1cc(-c2c[nH]nc2-c2ccc(F)cc2)cc(C(F)(F)F)c1)Nc1ccc(Cl)c(C(F)(F)F)c1` [Example 31]: < 500 µM.
As to `O=[N+]([O-])c1cccc(-c2c[nH]nc2-c2ccc(F)c(C(F)(F)F)c2)c1` [Example 32], the MIC is < 500 µM.
For the molecule `O=[N+]([O-])c1cccc(-c2c[nH]nc2-c2ccc(N3CCCCC3)c(C(F)(F)F)c2)c1` [Example 33], the MIC was < 500 µM.
The same measure, in the same setting: as for `Nc1cccc(-c2c[nH]nc2-c2ccc(F)c(C(F)(F)F)c2)c1` [Example 34], the figure is < 500 µM; as for `O=C(COc1ccccc1)Nc1cccc(-c2c[nH]nc2-c2ccc(F)c(C(F)(F)F)c2)c1` [Example 35], > 500 µM; as for `CS(=O)(=O)Nc1cccc(-c2c[nH]nc2-c2ccc(F)c(C(F)(F)F)c2)c1` [Example 36], < 500 µM.

Staying with this assay, now noted: LB medium, 16 hours, 37° C.; Table 3.
Consider `Cc1c(-c2c[nH]nc2-c2ccc(F)cc2)sc2ccccc12` [Example 37], for which the MIC was < 500 µM.
With `Fc1cccc(-c2c[nH]nc2-c2ccsc2)c1` [Example 38], the minimum inhibitory concentration (MIC) was < 500 µM.

For the next assay, the system named is S. au. Description: Minimum Inhibitory Concentration assay, S. au. The class given is cell-based. The note with it: LB medium, 16 hours, 37° C.; Table 1. How it is done:
as §1
as §1, with “MIC” for “Minimum Inhibitory Concentration (MIC)”
Regarding `NCCCNc1cc(-c2c[nH]nc2-c2ccc(F)cc2)cc(C(F)(F)F)c1` [Example 30], the minimal inhibitory concentration (MIC) was < 500 µM.
Take `O=C(NCCCNc1cc(-c2c[nH]nc2-c2ccc(F)cc2)cc(C(F)(F)F)c1)Nc1ccc(Cl)c(C(F)(F)F)c1` [Example 31]: the minimal inhibitory concentration (MIC) is < 500 µM.
The same measure, in the same setting: the same measure for `O=[N+]([O-])c1cccc(-c2c[nH]nc2-c2ccc(F)c(C(F)(F)F)c2)c1` [Example 32]: < 500 µM; for `O=[N+]([O-])c1cccc(-c2c[nH]nc2-c2ccc(N3CCCCC3)c(C(F)(F)F)c2)c1` [Example 33]: < 500 µM.
Consider `Nc1cccc(-c2c[nH]nc2-c2ccc(F)c(C(F)(F)F)c2)c1` [Example 34], for which the MIC is < 500 µM.
For `O=C(COc1ccccc1)Nc1cccc(-c2c[nH]nc2-c2ccc(F)c(C(F)(F)F)c2)c1` [Example 35], the minimum inhibitory concentration (MIC) was < 500 µM.
For the molecule `CS(=O)(=O)Nc1cccc(-c2c[nH]nc2-c2ccc(F)c(C(F)(F)F)c2)c1` [Example 36], the MIC is < 500 µM.

The same assay, now with this note: LB medium, 16 hours, 37° C.; Table 3.
As to `Cc1c(-c2c[nH]nc2-c2ccc(F)cc2)sc2ccccc12` [Example 37], the MIC was < 500 µM.
Regarding `Fc1cccc(-c2c[nH]nc2-c2ccsc2)c1` [Example 38], the minimal inhibitory concentration (MIC) is < 500 µM.
